3 compounds from patent EP2450046B1, “A MEDICINAL COMPOSITION FOR THE TREATMENT OF BRONCHITIS AND PREPARATION THEREOF” (Hebei Yiling Medicine Research Institute Co., Ltd., priority 2009, dated 2011) can be followed below.

Test [1] relates to panting in the guinea pig induced by histamine plus acetylcholine. Briefly: Dyspnea-relieving effect on panting in the guinea pig induced by histamine plus acetylcholine. It counts as in vivo, guinea pigs. To be noted: Aminophylline 0.05 g/kg i.g. q.d. 3 days, n=10.
Excerpt: Sixty white purebred guinea pigs of Grade I evenly composed of males and females with the mean body weight of 198.55 ± 6.30g, provided by Beijing Keyu Animal Breeding Center, License number: SCXK (Jing) 2002-0005.
The healthy guinea pigs evenly composed of males and females were screened preciously. The guinea pigs were individually placed into the 4 L bell-shape glass container and sprayed with a mixed liquid of 2 % acetylcholine chloride and 0.1 % histamine phosphate in equal volumes at a pressure of 400 mmHg for 20s. […] The guinea pig showing the incubation period for asthmatic convulsion above 120s would not be chosen. […] The animals in the test groups were intragastrically administered q.d. at a volume of 5 ml/kg for consecutive three days, while the animals in the control group were administered with equal amount of physiological saline. An asthma-inducing experiment was performed in 30 min post the final administration. The guinea pigs were individually placed into the 4 L bell-shape glass container and sprayed with a mixed liquid of 2 % acetylcholine chloride plus 0.1 % histamine phosphate in equal volumes at a pressure of 400 mmHg for 20s. […] The incubation period lasting for more than 6 min was counted as 360 s. The experimental results were compared among the groups by t-test.
The subject of test [2] is aqueous ammonia-induced cough in mice. Briefly: Cough-checking effect on the aqueous ammonia-induced cough in mice. The format is in vivo, Kunming mice. The following applies: CHT 12mg/kg i.g. q.d. 3 days; n=10. The method, then: • (1) The present medication to be tested, 6.25g crude drugs/g (i.e.,1g of the medication was made from 6.25g crude drugs), provided by Shijiazhuang Yiling Pharmaceutical Co. Ltd., lot number: 060501, and diluted to required concentrations with distilled water in the experiment. • (2) Cloperastine Hydrochloride Tablet (CHT) as the positive control of a western medicine, 10mg/tablet, produced by Beijing Shuguang Pharmaceutical Co., Ltd. lot number: 060619, and valid until June, 2008. • (3) Gui Long Ke Chuan Ning Capsule (GLKCNC) as the positive control of a traditional Chinese medicine, 1g crude drugs/pill (0.3g of powder per pill), produced by Shanxi Guilong pharmaceutical Co., Ltd., Approval number: SFDA Approval No. Z-11; Lot number of the product: 060112; valid until December 2007.
Sixty Kunming mice of Grade II evenly composed of males and females with the mean body weight of 19.90 ± 0.66 g, provided by Institute of Laboratory Animal Science, Chinese Academy of Medical Sciences, License number: SCXK (Jing) 2000-0006. […]

The subject of test [3] is citric acid-induced cough. The experiment in a line: Cough-checking effect on citric acid-induced cough in guinea pigs. It counts as in vivo. To be noted: CHT 7mg/kg i.g. q.d. 3 days; n=10. The method, then: • (1) The present medication to be tested, 6.25g crude drugs/g, provided by Shijiazhuang Yiling Pharmaceutical Co. Ltd., lot number: 060501. • (2) GLKCNC as the traditional Chinese medicine control, 1g crude drugs/pill (0.3g of powder per pill), produced by Shanxi Guilong pharmaceutical Co., Ltd., Approval number: SFDA Approval No. Z-11; Lot number of the product: 060112; valid until December 2007. • (3) CHT as the Western medicine control, 10 mg/tablet, produced by Beijing Shuguang Pharmaceutical Co., Ltd., production date: 200606; lot number: 060619; valid until June, 2008.
Sixty purebred guinea pigs of Grade I evenly composed of males and females with the mean body weight of 206.65 ± 6.92g, provided by Beijing Keyu Animal Breeding Center, License number: SCXK (Jing) 2002-0005.
The guinea pigs were individually placed into the sealed 4L bell-shape container with prior to the experiment and a solution of 17.5% citric acid was sprayed for 1 minute at a pressure of 400 mmHg through the glass sparger. The guinea pigs were screened according to the cough number recorded within 5 minutes Guinea pigs with a cough number of less than 10 were rejected and the qualified ones were chosen for the experiment. […]

The test system of a further test is sputum volume in mice. Briefly: Effect on sputum volume in mice measured by phenol red. The format is in vivo, ICR mice. To be noted: Mucosolvan 16mg/kg i.g. q.d. 3 days; n=10. On the procedure: • (1) The present medication to be tested, 6.25 g crude drugs/g, provided by Shijiazhuang Yiling Pharmaceutical Co. Ltd., lot number: 060501. • (2) GLKCNC as the traditional Chinese medicine control, 1g crude drugs/pill (0.3g of powder per pill), produced by Shanxi Guilong pharmaceutical Co., Ltd., Approval number: SFDA Approval No. Z-11; Lot number of the product: 060112; valid until December 2007. • (3) Mucosolvan as a western medicine control, 30mg/tablet, the product of Boehringer Ingelheim Int. Ltd. German, lot number: 206362, distribution lot number:030307. […]
Sixty healthy mice were randomly assigned into the following six groups: (1) the blank control group administered with distilled water (25 ml/kg); (2) the Mucosolvan group (16 mg/kg); (3) the GLKCNC group (2 g crude drugs/kg); (4) the low dosage group of the present medication (L-dosage group, 3 g crude drugs/kg); (5) the medium dosage group of the present medication (M-dosage group, 6 g crude drugs/kg); (6)the high dosage group of the present medication (H-dosage group, 12 g crude drugs/kg). […] The optical density (OD) value of the flush liquid was measured by a UV-visible spectrophotometer UV-120-02 at a wavelength of 546nm, in which the level of phenol red in the flush liquid (µg/ml) was calculated on the basis of phenol red standard curve. […]

The next test deals with sputum volume in rats. The experiment in a line: Effect on sputum volume in rats measured by capillary. The format is in vivo. The method, then:
• (1) The present medication to be tested, 6.25 g of crude drug/g, provided by Shijiazhuang Yiling Pharmaceutical Co. Ltd., lot number: 060501. • (2) GLKCNC as the traditional Chinese medicine control, 1g crude drugs/pill (0.3g of powder per pill), produced by Shanxi Guilong pharmaceutical Co., Ltd., Approval number: SFDA Approval No. Z-11; Lot number of the product: 060112; valid until December 2007. • (3) Mucosolvan as a western medicine control, 30mg/tablet, the product of Boehringer Ingelheim Int. Ltd. German, lot number: 206362, distribution lot number:030307.
Sixty SPF Wistar […] evenly composed of males and females with the mean body weight of 174.38 ± 7.64 g, provided by Institute of Laboratory Animal Science, Chinese Acadamy of Medical Sciences, and License number: SCXK (Jing) 2000-0006.
The sixty healthy rats were randomly assigned into the following six groups: (1) the blank control group administered with distilled water (10 ml/kg); (2) the Mucosolvan group (11 mg /kg); (3) the GLKCNC group (1.5 g crude drug/kg); (4) the low dosage group of the present medication (L-dosage group, 2 g crude drug/kg); (5) the medium dosage group of the present medication (M-dosage group, 4 g crude drug/kg); (6)the high dosage group of the present medication (H-dosage group, 8 g crude drug/kg). […] The skin of neck was incised and the trachea was separated, on which an orifice was pricked with a syringe needle at the median site of the lower edge of the thyroid cartilage between the two cartilages. A piece of glass capillary with the length of 5 cm and the inner diameter of 0.8 mm was inserted through the orifice in a way such that the glass capillary was just contact the inner wall of the trachea. When the glass capillary was filled up with sputum, it would be replaced immediately with another one. The sputum volume in capillaries was determined in 1 hour prior to the administration. One hour later, the animals in the experimental group were administered duodenally with the medications at a volume of 10 ml/kg, while the animals in the control group were administered with equal amount of physiological saline. […] Comparisons among the groups were performed by t-test with the average amount of the secretion in 1 hour prior to administration serving as a normal value.

Where [4] appears, read: Mucosolvan 11mg/kg duodenal, n=10.
The mark [5] stands for this setting: Mucosolvan 11mg/kg duodenal, vs 1 h prior to administration.

Structures can show the parent of a compound that is named as a salt.

For the compound `Cn1c(=O)c2[nH]cnc2n(C)c1=O` [Aminophylline], the Falling-down time in test [1] was 358.5 ± 3.4 s. In addition, the Incubation period in test [1] (more than 6 min counted as 360 s) came to 228.0 ± 43.3 s.
For `Clc1ccc(C(OCCN2CCCCC2)c2ccccc2)cc1` (centres unmarked) [CHT, Cloperastine Hydrochloride], in test [2], the Cough number is on record as 28.40±9.75 times /3 min and the Incubation period came out at 118.30 ± 27.23 s. Also, in test [3], the Cough number is reported as 6.10±3.57 times/5min and the Incubation period was 196.80 ± 66.22 s.
Consider `Cl.Nc1c(Br)cc(Br)cc1CNC1CCC(O)CC1` (centres unmarked) [Mucosolvan], for which, in the test with sputum volume in mice, the “Amount of excreted phenol red” value stood at 1.538 ± 0.486 µg/mL. In addition, in the test with sputum volume in rats (setting [4]), the “Excretion value, 1 h post administration” value turned out to be 8.76±2.51 cm and the “Excretion value, 2 h post administration” value is 8.50±1.79 cm. Further, in the test on sputum volume in rats (setting [5]), the “Excretion value, Change rate, 1 h post administration” value is 238.05±77.76%; the “Excretion value, Change rate, 2 h post administration” value is on record as 67.48±11.94%; the “Excretion value, Difference, 1 h post administration” value stood at 6.01±1.56 cm; the “Excretion value, Difference, 2 h post administration” value came to 5.75±1.64 cm. Further, in the test with sputum volume in rats (Mucosolvan group 11mg/kg, baseline before dosing, n=10), the “Excretion value, 1 h prior to administration” value turned out to be 2.75±1.08 cm.
